Reference: patent US20220242963A1, “B-CELL ACTIVATING CD73 ANTIBODIES” (CORVUS PHARMACEUTICALS, INC., priority 2018, published 2022)

System: B cells (CD19+CD3−)
Experiment: B cell activation in healthy donor PBMC, flow cytometry of surface markers / phospho ERK
Format: cell-based, human
Conditions: human B lymphocytes
Source text: With reference to FIGS. 2A-2E, each group of four bars from left to right represent data for: untreated donors, donors treated with human IgG1 isotype control, donors treated with BCR stimulation, and donors treated with CPI-006. The experiments for FIGS. 2A-2E are based on healthy donor PBMC treated overnight with flow cytometry analysis of surface markers on B cells (CD19^POS CD3^NEG). These lymphocyte markers are consistent with activation of B cells as well as other antigen presenting cell populations. […] The bar graph legend from top to bottom is representative of the data bars from left to right. […] For FIG. 2H the bar graph legend from top to bottom is representative of the data bars from left to right. For FIG. 2I the legend from top to bottom is representative of the data from top to bottom. […] For each group of four bars, the legend from top to bottom are representative of the bars from left to right.
PBMC were isolated from healthy donors and incubated with bead-bound anti-IgM, CPI-006 (10 μg/mL), or human IgG1 isotype control (10 μg/mL) overnight. Flow cytometry analysis was performed with gating on B cells (CD19+CD3−) and mean fluorescence intensity (MFI) was reported for staining with antibodies to the cell surface markers CD69, CD83, and CD25, as shown in FIGS. 2A-2C. PBMC were isolated from healthy donors and incubated with CPI-006, CPI-016, human IgG1 isotype control, and anti-human CD73 antibody, clone AD2 (available from Bio-Rad Antibodies) over a range of concentrations from about 0.1 μg/mL to more than 10 μg/mL. Flow cytometry analysis was performed with gating on B cells (CD19+CD3−) and mean fluorescence intensity (MFI) is reported for antibody staining of CD69, as shown in FIG. 2F. PBMC were isolated from healthy donors and incubated overnight with bead-bound anti-IgM or CPI-006 (1 μg/mL)+/−BTK inhibitor, ibrutinib (100 nM). Flow cytometry analysis was performed with gating on B cells (CD19+CD3−) and mean fluorescence intensity (MFI) is reported for antibody staining of CD69 and CD83, as shown in FIG. 2G. PBMC were isolated from healthy donors and incubated overnight with APCP (1 μM) or CPI-006 (1 μg/mL)+/−NECA (5′-N-ethylcarboxamidoadenosine). Flow cytometry analysis was performed with gating on B cells (CD19+CD3−) and mean fluorescence intensity (MFI) is reported for antibody staining of CD69, as shown in FIGS. 2H-2I. PBMC were isolated from healthy donors and incubated with the indicated treatments for 15 minutes. Flow cytometry analysis was performed with gating on the indicated cell populations and staining of phospho ERK was evaluated, as shown in FIG. 2J.

## MEDI9447: anti-CD73 antibody described by Hay CM et al., Oncoimmunology 2016 [reference compound]
  direct B cell activation: do not show this effect
